14 molecules from PubChem BioAssay (NCI) can be followed below.

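Method: 48-hour compound exposure of cells in 96-well plates, five concentrations, linear interpolation of endpoints. Here, GI50 denotes the concentration required for 50% inhibition of growth. TGI: total growth inhibition.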

What all share (assay): NCI-60 cell line screen, 48 h
In assay [1] the test system is A498 renal.
Assay [2] deals with CCRF-CEM leukemia.
Assay [3] deals with EKVX NSCLC.
Assay [4] deals with HCC-2998 colon.
Assay [5] deals with NCI-H226 lung.
In assay [6] the test system is NCI-H460 lung.
For assay [7], the system named is OVCAR-4 ovarian.
For assay [8], the system named is TK-10 renal.
For assay [9], the system named is UO-31 renal.

With `O=C1CCCC[C@H]1[C@H]1CCC[C@@H]([C@H]2CCCCC2=O)C1=O`, the TGI in assay [1], in assay [2], in [3], in assay [4], in assay [5] and in assay [6] was more than 100 µM each time. Further, the TGI in assay [7], in assay [8] and in [9] was more than 100 µM each time.
Regarding `O=C1OC2CCCC[C@@H]2C2C[C@]34CCCCC3[C@@H](C(=O)O4)C12` (stereo not given in full), the TGI in assay [1], in assay [2], in assay [3], in assay [4], in assay [5] and in assay [6] was more than 100 µM each time. Moreover, the TGI in [7], in [8] and in [9] was more than 100 µM throughout.
As for `CCN(CC)c1ccc(N=Nc2ccc(-c3nc4ccc[n+](C)c4s3)cc2)cc1`, the TGI in [1] is 26.6 µM; in assay [2], more than 100 µM; in assay [3] it was 58.8 µM; in assay [5], 26.1 µM; in assay [6], 21.5 µM; in assay [7], 20 µM. Further, the TGI in [8] is 34.5 µM; in assay [9], 46 µM.
With `C=CC/C=C/C/C=C/CCCCCCCc1cccc(O)c1C(=O)O`, the TGI in [2], in [3], in [4], in assay [6], in assay [7] and in assay [8] was more than 100 µM in each case. The molecule further registered a TGI in assay [9] of 79.1 µM.
Consider `O=c1c2cc(Br)cc(Br)c2nc(CCCl)n1CCO`, for which the TGI in assay [1], in assay [2], in [3], in assay [4], in [5] and in assay [6] was more than 100 µM each time. The TGI in [7], in [8] and in assay [9] was more than 100 µM throughout.
Take `C/C(CC(=O)NCCc1ccccc1)=N\NC(=O)C[n+]1ccccc1`: the TGI in assay [1], in assay [3], in [4], in [5], in assay [6] and in assay [8] was more than 100 µM in each case. Further, in assay [9], the TGI is more than 100 µM.
As for `O=C1/C(=C/c2cccc([N+](=O)[O-])c2)COc2ccc(Br)cc21`, the TGI in assay [1], in [2], in assay [3], in assay [4], in [6] and in [8] was more than 100 µM each time. The TGI in assay [9] is more than 100 µM.
As for `NC(=O)NCc1c(C(N)=O)ncn1Cc1ccccc1`, the TGI in assay [1], in assay [2], in assay [3], in assay [4], in assay [6] and in [7] was more than 100 µM in each case. In [8], this molecule displayed a TGI of more than 100 µM.
In the case of `O=C1[C@@H]2C(c3ccccc3F)=NO[C@@H]2C(=O)N1c1ccc(Cc2ccc(N3C(=O)[C@H]4C(c5ccccc5F)=NO[C@H]4C3=O)cc2)cc1`, the TGI in [1] is more than 100 µM; in assay [2] it was more than 70.8 µM; in [3], more than 100 µM; in assay [4], more than 100 µM; in [5], more than 100 µM; in assay [6], more than 100 µM. Besides, the TGI in [7] is more than 100 µM; in assay [8], more than 31.6 µM; in assay [9], more than 100 µM.
`O=C(O)[C@H](NS(=O)(=O)c1ccc([N+](=O)[O-])cc1)c1ccccc1`: the TGI in assay [2], in assay [3], in assay [4], in assay [5], in assay [6] and in assay [7] was more than 100 µM throughout. For the same molecule, the TGI in assay [8] and in [9] was more than 100 µM throughout.
On to `CC(=O)N[C@H]1CSSC[C@@H](C(N)=O)NC(=O)[C@H](C(C)C)NC(=O)[C@H](C)NC(=O)[C@H](Cc2cnc[nH]2)NC1=O`, for which the GI50 in assay [2] is 29.1 µM; in assay [3], more than 100 µM; in [4], more than 100 µM; in [5] it was more than 100 µM; in assay [6] it was more than 100 µM; in assay [7] it was more than 100 µM. In addition, the GI50 in assay [8] and in assay [9] was more than 100 µM throughout. In addition, the TGI in assay [2], in assay [3], in assay [4], in assay [5], in assay [6] and in assay [7] was more than 100 µM each time. Moreover, the TGI in [8] and in assay [9] was more than 100 µM throughout.
Take `CSC(C1c2ccccc2N(c2ccc(C)cc2)c2[nH]c(=O)n(C)c(=O)c21)S(=O)(=O)c1ccc(C)cc1` (stereo not given): the TGI in assay [1], in [2], in assay [3], in [4], in [5] and in [6] was more than 100 µM throughout. For the same molecule, the TGI in assay [7], in assay [8] and in assay [9] was more than 100 µM each time.
In the case of `O=C1CCC(O)=C1N=Nc1ccccc1`, the TGI in [1], in [2], in assay [3], in assay [4], in assay [5] and in [6] was more than 100 µM in each case. For the same molecule, the TGI in assay [7], in assay [8] and in [9] was more than 100 µM each time.
Consider `CN(C)c1cc[c]([Sn]([c]2ccc(N(C)C)cc2)([c]2ccc(N(C)C)cc2)[c]2ccc(N(C)C)cc2)cc1`, for which the GI50 in assay [1] was 7.47 µM; in [2], 1.26 µM; in [3], 6.74 µM; in assay [4], 4.32 µM; in assay [6], 12 µM; in assay [7], 7.65 µM. Also, the GI50 in assay [8] is 15.7 µM; in assay [9], 8.76 µM. Besides, the TGI in assay [1] turned out to be 20.3 µM; in assay [2], 5.72 µM; in [3], 28 µM; in [4], 18.9 µM; in [6], 28.1 µM; in assay [7], 20.7 µM. Besides, the TGI in assay [8] came to 31.4 µM; in [9], 21.1 µM.
